The values below come from patent publication US20110207751A1, “HETEROCYCLIC COMPOUNDS AND USES AS ANTICANCER AGENTS” (priority 2010, published 2011).

Assay [1] deals with A549 cells (human lung carcinoma cell line). Kind of assay: Inhibition of cell proliferation, RT-CES cell index. Type of assay: cell-based. As to conditions: 72 hr post compound treatment, read-out: calculated IC50. An excerpt: (§1) The biological activity of compounds disclosed herein was monitored and profiled using the Real-Time Cell Electronic Sensing (RT-CES®) system from ACEA Biosciences, Inc. The RT-CES system utilizes cell-substrate impedance technology to monitor cellular behavior inside tissue culture wells in a microtiter plate format. The technology features in the integration of molecular and cell biology with microelectronics and is based on the electronic detection of biological assay process. The details of this cell electronic sensing technology and associated devices, systems and methods of use are described in U.S. Pat. No. 7,167,585; U.S. Pat. No. 7,468,255; PCT publication number WO 2004/010102; U.S. Pat. No. 7,470,533; and U.S. Pat. No. 7,459,303, each of which is incorporated herein by reference. Additional details of RT-CES technology are further disclosed in U.S. Pat. No. 7,468,255.
(§2) For measurement of cell-substrate or cell-electrode impedance using RT-CES technology, microelectrodes having appropriate geometries are fabricated onto the bottom surfaces of microtiter plate or similar device, facing into the wells. […] When there are changes to the biological status of the cells analogue electronic readout signals are measured automatically and in real time, and are converted to digital signals for processing and for analysis. In a RT-CES system, a cell index (arbitrary representation of change in impedance) is automatically derived and provided based on measured electrode impedance values. […]
(§3) To quantify cell status based on the measured cell-electrode impedance, a parameter termed Cell Index is derived. Cell Index is a quantitative measure of the status of the cells in an electrode-containing well. […]
A549 cells (human lung carcinoma cell line) were seeded into wells of 96 well E-plate devices (Roche) with an initial seeding density of 5000 cells per well and were pre-incubated in incubator under standard cell culture condition for about 24 hours. […] The cell status was monitored prior to and after the compound addition using RT-CES system (ACEA Biosciences). […]

Assay [2] deals with H596 cells (human adenosquamous lung carcinoma cell line). Kind of assay: Inhibition of cell proliferation, xCelligence cell index. To be noted: NCI-H596, 72 hr post compound treatment, read-out: calculated IC50. Type of assay: cell-based.
From the text: as §1, §2, §3
H596 cells (human adenosquamous lung carcinoma cell line) were seeded into wells of 96 well E-plate devices (Roche) with an initial seeding density of 5000 cells per well and were pre-incubated in incubator under standard cell culture condition for about 24 hours. […] The cell status was monitored prior to and after the compound addition using xCelligence system (Roche). […]

Assay [3] relates to H292 cells (human pulmonary lung carcinoma cell line). Described as above. Type of assay: cell-based. As to conditions: NCI-H292, 72 hr post compound treatment, read-out: calculated IC50.
From the text: as §1, §2, §3
H292 cells (human pulmonary lung carcinoma cell line) were seeded into wells of 96 well E-plate devices (Roche) with an initial seeding density of 5000 cells per well and were pre-incubated in incubator under standard cell culture condition for about 24 hours. […] The cell status was monitored prior to and after the compound addition using xCelligence system (Roche). […]

Assay [4] deals with H1993 cells (human non-small cell lung cancer cell line). Described as above. Type of assay: cell-based. As to conditions: NCI-H1993, 72 hr post compound treatment, read-out: calculated IC50.
For assay [5], the system named is HT29 cells (human colon cancer cell line). The description is as above. Type of assay: cell-based. As to conditions: HT-29, 72 hr post compound treatment, read-out: calculated IC50.
From the text: as §1, §2, §3
HT29 cells (human colon cancer cell line) were seeded into wells of 96 well E-plate devices (Roche) with an initial seeding density of 5000 cells per well and were pre-incubated in incubator under standard cell culture condition for about 24 hours. […] The cell status was monitored prior to and after the compound addition using xCelligence system (Roche). […]

Assay [6] concerns U138MG cells (human brain cancer cell line). The description is as above. Type of assay: cell-based. As to conditions: U138-MG, 72 hr post compound treatment, read-out: calculated IC50.
From the text: For measurement of cell-substrate or cell-electrode impedance using RT-CES technology, microelectrodes having appropriate geometries are fabricated onto the bottom surfaces of microtiter plate or similar device, facing into the wells. Cells are introduced into the wells of the devices, and make contact to and attach to the electrode surfaces. The presence, absence or change of properties of cells affects the electronic and ionic passage on the electrode sensor surfaces. Measuring the impedance between or among electrodes provides important information about biological status of cells present on the sensors. When there are changes to the biological status of the cells analogue electronic readout signals are measured automatically and in real time, and are converted to digital signals for processing and for analysis. In a RT-CES system, a cell index (arbitrary representation of change in impedance) is automatically derived and provided based on measured electrode impedance values. […]
U138MG cells (human brain cancer cell line) were seeded into wells of 96 well E-plate devices (Roche) with an initial seeding density of 5000 cells per well and were pre-incubated in incubator under standard cell culture condition for about 24 hours. […] The cell status was monitored prior to and after the compound addition using xCelligence system (Roche). […]
Assay [7] relates to SW1088 cells (human brain cancer cell line). Described as above. Type of assay: cell-based. To be noted: 72 hr post compound treatment, read-out: calculated IC50.
From the text: For measurement of cell-substrate or cell-electrode impedance using RT-CES technology, microelectrodes having appropriate geometries are fabricated onto the bottom surfaces of microtiter plate or similar device, facing into the wells. Cells are introduced into the wells of the devices, and make contact to and attach to the electrode surfaces. The presence, absence or change of properties of cells affects the electronic and ionic passage on the electrode sensor surfaces. Measuring the impedance between or among electrodes provides important information about biological status of cells present on the sensors. When there are changes to the biological status of the cells analogue electronic readout signals are measured automatically and in real time, and are converted to digital signals for processing and for analysis. In a RT-CES system, a cell index (arbitrary representation of change in impedance) is automatically derived and provided based on measured electrode impedance values. The cell index obtained for a given well reflects: 1) how many cells are attached to the electrode surfaces in this well; 2) how well cells are attached to the electrode surfaces in this well. […]
SW1088 cells (human brain cancer cell line) were seeded into wells of 96 well E-plate devices (Roche) with an initial seeding density of 5000 cells per well and were pre-incubated in incubator under standard cell culture condition for about 24 hours. […] The cell status was monitored prior to and after the compound addition using xCelligence system (Roche). […]
For a further assay, the system named is MAP-rich tubulin. Kind of assay: In vitro microtubule assembly assay. Type of assay: biochemical. As to conditions: absorbance at 405 nm. The method, then: In vitro microtubule assembly assay. Microtubule polymerization was conducted in a 96-well microtiter plate with MAP-rich tubulin and various concentrations of COMPOUND O in a buffer containing 80 mM PIPES pH 6.9, 0.5 mM EGTA, 2 mM MgCl2, 1 mM GTP, 10% glycerol and 4% (v/v) dimethyl sulfoxide (DMSO) based on the HTS-tubulin polymerization assay kit protocol (Cytoskeleton). The increase in absorbance was measured at 405 nm a Beckman Multimode DTX880 plate reader at 37° C. and recorded every 60 seconds for 30 minutes.

A word on the IC50: it is the midpoint of a concentration-inhibition curve.

Where a name gives a salt, the structure may show the parent alone.

`CC[C@]1(O)C[C@H]2CN(CCc3c([nH]c4ccccc34)[C@@](C(=O)OC)(c3cc4c(cc3OC)N(C=O)[C@H]3[C@@](O)(C(=O)OC)[C@H](OC(C)=O)[C@]5(CC)C=CCN6CC[C@]43[C@@H]65)C2)C1` [vincristine]: the IC50 in assay [1] was 0.0618 µM; in assay [2], 0.0369 µM; in assay [3], 0.00263 µM; in assay [4], 0.00243 µM; in assay [5], 0.0127 µM; in assay [6], 0.000641 µM. In addition, the IC50 in assay [7] was 0.00496 µM. In addition, the “inhibition of tubulin polymerization compared with control sample” value in the assay on MAP-rich tubulin (5 μM) was “more than 50%”.

Regarding `CC(=O)O[C@H]1C(=O)[C@@]2(C)[C@H]([C@H](OC(=O)c3ccccc3)[C@]3(O)C[C@H](OC(=O)[C@H](O)[C@@H](NC(=O)c4ccccc4)c4ccccc4)C(C)=C1C3(C)C)[C@]1(OC(C)=O)CO[C@@H]1C[C@@H]2O` [paclitaxel], the IC50 in assay [1] was 0.0053 µM; in assay [2] it was 0.0125 µM; in assay [3], 0.00259 µM; in assay [4] it was 0.00512 µM; in assay [5] it was 0.00252 µM; in assay [6], 0.0181 µM. Moreover, in assay [7], the IC50 was 0.0131 µM. Further, in the assay with MAP-rich tubulin (5 μM), the “effect on tubulin polymerization” value was “further enhanced compared to that of the negative control”.

`CCc1ccc(Nc2nc(-c3c(C)nc4sccn34)cs2)cc1` [COMPOUND O, 2-(4-ethylphenyl)amino-4-(6-methylimidazo[2,1-b]thiazol-5-yl)-thiazole monohydrobromide]: the IC50 in assay [1] was 0.0109 µM; in assay [2], 0.0379 µM; in assay [3], 0.0108 µM; in assay [4], 0.0602 µM; in assay [5], 0.0254 µM; in assay [6] it was 0.00341 µM. Besides, in assay [7], the IC50 is 0.0212 µM. The “effect on tubulin polymerization” value in the assay with MAP-rich tubulin (0.04 μM) is reported as “no inhibition”. Moreover, the “effect on tubulin polymerization, concentration dependence” value in the assay with MAP-rich tubulin (various concentrations) is recorded as “inhibited in a concentration-dependent manner”.
